# Laboratory results: patent US12054488B2, “Pyrazolopyrimidine compound and preparation method therefor and use thereof in preparation of anti-cancer drug” (SUZHOU RAYMON PHARMACEUTICALS COMPANY, LTD., priority 2018, dated 2024)
# Target: PI3K-alpha enzyme (Homo sapiens (Human), UniProt P42336)
# Experiment: PI3-Kinase (human) HTRF Assay kit, PI3K alpha enzyme IC50 determination
# Type: biochemical
# Settings: ATP 10 μM, PIP2 10 μM, 1% DMSO, 30 min at room temperature, double holes per concentration, read-out: half inhibitory concentration (IC50) on PI3K-alpha
# Experimental: • 4× Reaction Buffer was diluted to 1× with ddH2O, and 1M DTT was added to make the final concentration of 5 mM. Prepare fresh before each use. For example, to prepare 10 mL 1× Reaction Buffer, adding 2.5 mL 4× Reaction Buffer, 50 μL 1 M DTT, and 7.45 mL ddH2O. Throughout the experiment, freshly prepared 1× Reaction Buffer was used to prepare ATP working solution, substrate and enzyme mixed working solution, etc.
# • The compound to be tested was dissolved in DMSO to 1 mM as a storage solution, and then diluted with DMSO in a 4-fold ratio for a total of 10 concentration points. 1 μL of each was added to 24 μL 1× Reaction Buffer. 5 μL of each diluted solution was added into a 384-well plate and contained 1% DMSO.
# • 1× reaction buffer was used to prepare 2×PIP2 working solution to make the final concentration of 20 μM and PIP2 reaction final concentration of 10 μM, for example, to prepare 1 ml 1× reaction buffer/PIP2 working solution, add 20 μL of PIP2 to 980 μL 1× reaction buffer. This working solution should be prepared with 0.1-0.2 ml more to meet the control usage and dead volume.
# • The kinase was diluted with 2×PIP2 working solution, and the concentration of the kinase working solution was 10 ng/well.
# • That is, 2×PIP2 working solution.
# • 10 mM ATP was diluted to 40 μM with 1× reaction buffer. In a 20 μL kinase reaction system, the concentration of ATP was 10 μM. For example, to prepare 2 ml ATP working solution, take 8 μL 10 mM ATP and add it to 1992 μL 1× reaction buffer.
# • Stop A and Stop B were mixed in a ratio of 3:1 and can be used after at least 2 hours at room temperature.
# • DM C, DM A and DM B were mixed in a ratio of 18:1:1, and can be used after at least 2 hours at room temperature.
# • Emission Ratio (ER)=[…] Emission signal/620 nm Emission signal • The average emission intensity ratio (Emission Ratio) of the 100% inhibition control is recorded as: ER100% • The average Emission Ratio of the 0% inhibition control is recorded as: ER0%
# • The inhibition rate is calculated with the following formula: Inhibition rate=(ERsample−ER0%)/(ER100%−ER0%)×100% [(ERpositive−ERsample)/(ERpositive−ERnegative)*100%]
# Chain of PI3K-alpha enzyme (P42336 whole entry): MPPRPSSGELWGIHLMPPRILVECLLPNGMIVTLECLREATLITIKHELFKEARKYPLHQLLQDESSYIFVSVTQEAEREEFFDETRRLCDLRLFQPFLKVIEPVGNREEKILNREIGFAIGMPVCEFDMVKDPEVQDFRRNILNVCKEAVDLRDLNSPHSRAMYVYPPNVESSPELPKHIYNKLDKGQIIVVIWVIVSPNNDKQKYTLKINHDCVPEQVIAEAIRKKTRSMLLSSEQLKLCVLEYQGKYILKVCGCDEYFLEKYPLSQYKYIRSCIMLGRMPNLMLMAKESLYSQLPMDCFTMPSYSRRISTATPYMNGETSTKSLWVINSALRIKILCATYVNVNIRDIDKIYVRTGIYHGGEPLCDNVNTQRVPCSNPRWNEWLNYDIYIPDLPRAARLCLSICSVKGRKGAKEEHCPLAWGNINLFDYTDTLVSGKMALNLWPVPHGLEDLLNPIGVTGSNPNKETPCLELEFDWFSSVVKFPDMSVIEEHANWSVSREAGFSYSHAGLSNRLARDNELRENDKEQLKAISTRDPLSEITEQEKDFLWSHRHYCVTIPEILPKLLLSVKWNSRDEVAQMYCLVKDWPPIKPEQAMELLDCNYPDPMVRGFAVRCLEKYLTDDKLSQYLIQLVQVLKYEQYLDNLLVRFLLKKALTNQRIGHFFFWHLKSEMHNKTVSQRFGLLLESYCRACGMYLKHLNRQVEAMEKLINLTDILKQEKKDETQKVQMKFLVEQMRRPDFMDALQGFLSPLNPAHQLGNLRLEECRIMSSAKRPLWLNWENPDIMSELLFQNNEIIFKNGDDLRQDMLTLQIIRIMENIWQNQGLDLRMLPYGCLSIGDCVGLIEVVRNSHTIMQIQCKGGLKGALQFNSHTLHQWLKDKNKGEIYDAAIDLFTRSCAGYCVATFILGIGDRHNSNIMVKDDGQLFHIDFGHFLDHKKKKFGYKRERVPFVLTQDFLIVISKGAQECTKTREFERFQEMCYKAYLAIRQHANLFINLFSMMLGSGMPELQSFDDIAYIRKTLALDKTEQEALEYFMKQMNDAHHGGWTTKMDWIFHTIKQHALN
# Chain of PI3K-alpha enzyme (P27986 whole entry partner): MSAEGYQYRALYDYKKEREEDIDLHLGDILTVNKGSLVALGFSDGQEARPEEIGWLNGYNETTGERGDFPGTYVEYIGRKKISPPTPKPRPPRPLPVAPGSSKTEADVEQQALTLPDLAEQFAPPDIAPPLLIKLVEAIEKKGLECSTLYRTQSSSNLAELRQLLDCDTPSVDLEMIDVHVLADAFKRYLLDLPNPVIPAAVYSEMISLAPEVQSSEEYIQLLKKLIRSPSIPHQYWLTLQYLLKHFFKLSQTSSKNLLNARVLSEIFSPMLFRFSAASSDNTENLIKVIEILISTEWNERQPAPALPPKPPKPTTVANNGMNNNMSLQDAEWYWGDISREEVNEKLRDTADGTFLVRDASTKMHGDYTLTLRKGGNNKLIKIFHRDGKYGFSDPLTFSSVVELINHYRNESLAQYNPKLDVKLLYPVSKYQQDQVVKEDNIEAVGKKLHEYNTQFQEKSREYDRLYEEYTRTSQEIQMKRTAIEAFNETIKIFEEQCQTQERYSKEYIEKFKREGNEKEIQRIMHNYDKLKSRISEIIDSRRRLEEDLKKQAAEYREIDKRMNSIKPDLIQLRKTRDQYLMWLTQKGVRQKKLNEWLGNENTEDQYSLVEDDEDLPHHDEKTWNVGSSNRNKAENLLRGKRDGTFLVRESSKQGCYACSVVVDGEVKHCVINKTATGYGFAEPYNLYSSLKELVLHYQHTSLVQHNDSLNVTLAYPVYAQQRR
row,Structure (SMILES),IC50
1,"Nc1n[nH]c2c(N3CCOCC3)nc(-c3ccc(NC(=O)Nc4ccc(CO)cc4)cc3)nc12 [Compound I-1, 1-(4-(3-amino-7-morpholino-1H-pyrazolo[4,3-d]pyrimidin-5-yl)phenyl)-3-(4-(hydroxymethyl)phenyl)urea]",10.7 nM
2,"CS(=O)(=O)NC(=O)Cc1ccc(NC(=O)Nc2ccc(-c3nc(N4CCOCC4)c4[nH]nc(N)c4n3)cc2)cc1 [Compound I-3, 2-(4-(3-(4-(3-amino-7-morpholino-1H-pyrazolo[4,3-d]pyrimidin-5-yl)phenyl)ureido)phenyl)-N-(methylsulfonyl)acetamide]",89.1 nM
3,"CC(C)(O)c1ccc(NC(=O)Nc2ccc(-c3nc(N4CCOCC4)c4[nH]nc(N)c4n3)cc2)cc1 [Compound I-2, 1-(4-(3-amino-7-morpholino-1H-pyrazolo[4,3-d]pyrimidin-5-yl)phenyl)-3-(4(2-hydroxypropan-2-yl)phenyl)urea]",89.6 nM
4,"CC1(C)C(=O)Nc2cc(NC(=O)Nc3ccc(-c4nc(N5CCOCC5)c5[nH]nc(N)c5n4)cc3)ccc21 [Compound I-4, 1-(4-(3-amino-7-morpholino-1H-pyrazolo[4,3-d]pyrimidin-5-yl)phenyl)-3-(3,3-dimethyl-2-oxoindolin-6-yl)urea]",108 nM

# Now from value to molecule:
row,IC50,Structure (SMILES)
1,228 nM,"Nc1n[nH]c2c(N3CCOCC3)nc(-c3ccc(NC(=O)Nc4ccc(CO)c(C(F)(F)F)c4)cc3)nc12 [Compound I-5, 1-(4-(3-amino-7-morpholino-1H-pyrazolo[4,3-d]pyrimidin-5-yl)phenyl)-3-(4-(hydroxymethyl)-3-(trifluoromethyl)phenyl)urea]"
2,40.9 nM,"Nc1n[nH]c2c(N3CCOCC3)nc(-c3ccc(NC(=O)Nc4ccc(COCCN5CCOCC5)cc4)cc3)nc12 [Compound I-6, 1-(4-(3-amino-7-morpholino-1H-pyrazolo[4,3-d]pyrimidin-5-yl)phenyl)-3-(4-((2-morpholinoethoxy)methyl)phenyl)urea]"
